According to article PMC4231056, “Dihydroflavonol 4-Reductase Genes Encode Enzymes with Contrasting Substrate Specificity and Show Divergent Gene Expression Profiles in Fragaria Species” (PLoS ONE, 2014):

How the values were obtained:
[1] = molecular target: T1, DFR1s (recombinant, F. vesca) (Fragaria vesca, UniProt A0A0A0PTI9); assay: radiolabelled turnover assay, yeast protein preparation; format: biochemical; details: NADPH; labelled compound (14C)
T1 construct: gene DFR; full-length ORF, 333 residues; expressed in yeast from pYES vector; not purified; result stated for all clones together
T1 sequence (A0A0A0PTI9 1-333): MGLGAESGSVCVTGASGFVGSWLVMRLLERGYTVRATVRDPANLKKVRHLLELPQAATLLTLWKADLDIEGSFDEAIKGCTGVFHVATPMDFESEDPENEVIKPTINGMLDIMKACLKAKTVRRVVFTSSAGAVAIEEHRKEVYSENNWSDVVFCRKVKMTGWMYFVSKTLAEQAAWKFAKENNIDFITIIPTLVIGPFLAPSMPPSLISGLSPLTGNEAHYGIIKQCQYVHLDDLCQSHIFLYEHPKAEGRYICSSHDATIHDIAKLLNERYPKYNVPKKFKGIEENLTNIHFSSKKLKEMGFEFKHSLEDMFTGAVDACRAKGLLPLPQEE

[2] = molecular target: T2, DFR2s (recombinant, F. vesca) (Fragaria vesca, UniProt A0A0A0PVL5); assay: as above; format: biochemical; details: NADPH; labelled compound (14C)
T2 construct: gene DFR; full-length ORF, 349 residues; expressed in yeast from pYES vector; not purified; result stated for all clones together
T2 sequence (A0A0A0PVL5 1-349): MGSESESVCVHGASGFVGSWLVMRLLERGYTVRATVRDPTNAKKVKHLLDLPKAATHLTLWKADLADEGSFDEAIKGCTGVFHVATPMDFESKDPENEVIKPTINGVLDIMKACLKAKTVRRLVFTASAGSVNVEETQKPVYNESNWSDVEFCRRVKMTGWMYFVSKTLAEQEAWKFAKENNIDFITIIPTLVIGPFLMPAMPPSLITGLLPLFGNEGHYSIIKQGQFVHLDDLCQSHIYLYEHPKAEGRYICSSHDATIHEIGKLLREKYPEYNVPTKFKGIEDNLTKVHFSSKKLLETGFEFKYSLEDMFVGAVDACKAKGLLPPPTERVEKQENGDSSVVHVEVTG

[3] = substrate: O=C1c2c(O)cc(O)cc2O[C@H](c2ccc(O)cc2)[C@H]1O; assay: radiolabelled TLC assay, Lineweaver-Burk, yeast protein preparation; format: biochemical, Fragaria x ananassa; details: NADPH; optimised conditions (pH optimum 6.00); labelled compound (14C); K cat is per kg protein, a specific rate
Excerpt: radiolabelled TLC assay, Lineweaver-Burk, yeast protein preparation on DFR1 (recombinant, KC894048)

[4] = substrate: O=C1c2c(O)cc(O)cc2O[C@H](c2ccc(O)c(O)c2)[C@H]1O; assay: as above; format: biochemical, Fragaria x ananassa; details: NADPH; optimised conditions (pH optimum 6.25); labelled compound (14C); K cat is per kg protein, a specific rate
Excerpt: (§1) radiolabelled TLC assay, Lineweaver-Burk, yeast protein preparation on DFR2 (recombinant, KC894055)

[5] = substrate: O=C1c2c(O)cc(O)cc2O[C@H](c2cc(O)c(O)c(O)c2)[C@H]1O; assay: as above; format: biochemical, Fragaria x ananassa; details: NADPH; optimised conditions (pH optimum 5.75); labelled compound (14C); K cat is per kg protein, a specific rate
Excerpt: as §1

## O=C1c2c(O)cc(O)cc2O[C@H](c2ccc(O)cc2)[C@H]1O [DHK]
[1]
  radiolabelled turnover assay, yeast protein preparation: Recombinant DFR1 s, in contrast, were selective for DHK

## O=C1c2c(O)cc(O)cc2O[C@H](c2ccc(O)c(O)c2)[C@H]1O [DHQ]
[2]
  radiolabelled turnover assay, yeast protein preparation: The recombinant DFR2s converted DHQ and DHM to leucocyanidin and leucodelphinidin

## O=C1c2c(O)cc(O)cc2O[C@H](c2cc(O)c(O)c(O)c2)[C@H]1O [DHM]
[2]
  radiolabelled turnover assay, yeast protein preparation: The recombinant DFR2s converted DHQ and DHM to leucocyanidin and leucodelphinidin

B1: DFR1 (recombinant, KC894048) (Fragaria x ananassa) (protein)
chain: MGLGAESGSVCVTGASGFVGSWLVMRLLEHGYTVRATVRDPANLKKVRHLLELPQAATRLTLWKADLDVEGSFDEAIKGCTGVFHVATPMDFESEDPENEVIKPTINGMLDIMKACLKAKTVRRVVFTSSAGAVAIEEHRKEVYSENNWSDVVFCRKVKMTGWMYFVSKTLAEQAAWKFAKENNIDFITIIPTLVIGPFLAPSMPPSLISGLSPLTGNEAHYGIIKQCQYVHLDDLCQSHIFLYEHPKAEGRYICSSHDATIHDIAKLLNEKYPKYNVPKKFKGIEENLTNIHFSSKKLKEMGFEFKHSLEDMFTGAVDACREKGLLPLPQEEETEKRRAG
notes: full-length ORF, 341 residues; expressed in yeast INVSc1 from pYES2.1/V5-His-TOPO; reverse primer starts with the stop codon; cell protein preparation, not purified
[3]
  Km: 0.40 µM

B2: DFR2 (recombinant, KC894055) (Fragaria x ananassa) (protein)
chain: MGSESESVCVTGASGFVGSWLVMRLLERGYTVRATVRDPTNAKKVKHLLDLPKAATHLTLWKADLADEGSFDEAIKGCSGVFHVATPMDFESKDPENEVIKPTINGVLDIMKACLKAKTVRRLVFTASAGSVNVEETQKPVYNESNWSDVEFCRRVKMTGWMYFVSKTLAEQEAWKFAKENNIDFITIIPTLVIGPFLMPAMPPSLITGLSPLFGNEGHYSIIKQGQFVHLDDLCQSHIYLYEHPKAEGRYICSSHDATIHEIAKLLREKYPEYNVPTKFKGIEDNLTKVHFSSKKLLETGFEFKYSLEDMFVGAVDACKAKGLLPPPTERVEKQEAGDSGVVHVEVTG
notes: full-length ORF, 349 residues; expressed in yeast INVSc1 from pYES2.1/V5-His-TOPO; reverse primer holds the stop codon; cell protein preparation, not purified
[4]
  Km: 0.40 µM
[5]
  Km: 2.3 µM
